This note sets out measurements from patent publication US12383632B2, “Doxorubicin containing nanoplexes and uses thereof” (University of Maryland, Baltimore, priority 2019, dated 2025).

For one experiment, the system named is MDA-MB-435. As to the kind of experiment: In vivo tumor experiments, tumor size. Set-up: species or system mice. As to conditions: low dose 2.2 μg/injection, versus untreated controls. The protocol:
MDA-MB-435 cells (4×10^6 cells per injection) were subcutaneously injected bilaterally into each mouse. After 4 days, when the subcutaneous tumors were about 45 mm3, the mice were separated into groups of 6 mice to determine the efficacy of treatments. The groups were as follows: untreated, nanoplex alone, low dose doxorubicin (2.2 μg/injection), high dose doxorubicin (4.4 μg/injection, low dose doxorubicin nanoplex (2.2 μg/injection), high dose doxorubicin nanoplex (4.4 μg/injection). The mice were given five intravenous injections of the various treatments. Nanoplexes were administered every 2 to 3 days (Monday, Wednesday, Friday). Tumor size was assessed with calipers before each injection and 2 days after the last injection; the size was calculated by formula ½×d1×d22, where d2 is the smaller of the two measurements. Mice were weighed before each injection with tumor weight subtracted to obtain the final weight.

The subject of the next experiment is Ki67. The experiment can be described thus: Immunofluorescence of Ki67 in tumor sections. It counts as in vivo, mice. The protocol: Quantification of tumor cells staining positive for Ki67 with different treatment groups is shown, expressed as the percentage of Ki67 positive cells. The data represent the mean+SD of four HPF images (60×) for each treatment. **, p<0.01, ***, p<0.001. N=˜50 cells/image.
After the tumors were fixed and a heat-mediated antigen retrieval step was performed, the tumors were permeabilized (0.1% Triton X-100) for 10 min and then blocked with 5% BSA in 0.1% PBS-Tween for 2 h. […] Nuclear DNA was labeled with DAPI.

Consider `COc1cccc2c1C(=O)c1c(O)c3c(c(O)c1C2=O)C[C@@](O)(C(=O)CO)C[C@@H]3O[C@H]1C[C@H](N)[C@H](O)[C@H](C)O1` [free doxorubicin, doxorubicin], for which the entries for the “effect on growth / size of tumors (words)” value in the experiment on MDA-MB-435 and in the experiment with MDA-MB-435 (listed as doxorubicin) were “does not reduce the size of tumors” and “no effect”, respectively. Also, the “tumor cells stained positive for Ki67” value is listed as “about 57%” with Ki67 (high dose, 4.4 μg doxorubicin/injection) and 80% with Ki67 (low dose, 2.2 μg doxorubicin/injection).
